7 compounds from article PMC4640093, “Lipophilic prodrugs of nucleoside triphosphates as biochemical probes and potential antivirals” (Nature Communications, 2015) can be followed below.

Some results are limits rather than exact numbers.

A short description of series [1]: Chemical hydrolysis in PBS, pH 7.3. The class given is physicochemical. Particulars: for t1/2(1) PBS, pH=7.3: removal of first masking unit (half-lives of 3); for t1/2(1) PBS, pH=7.3 / t1/2(2) PBS, pH=7.3: PBS pH 7.3, 37 °C; for t1/2(2) PBS, pH=7.3: second hydrolysis step, half-lives of intermediate 4 to give d4TTP 19. On the procedure:
Stock solutions (50 mM in DMSO-d6) of the appropriate compounds were prepared. After dilution of 11 μl with 100 μl Millipore water and 189 μl DMSO-d6 to 1.9 mM hydrolysis solutions the reaction was started by the addition of 300 μl PBS (50 mM, pH 7.3). The solution was incubated at 37 °C in a thermomixer. An initial aliquot (25 μl) was taken directly and analysed by analytical HPLC at 265–266 nm. Further aliquots were taken for monitoring the kinetic hydrolysis. The exponential decay curves (pseudo-first order) based on absolute integral values were calculated with commercially available software (OriginPro 9.0G) and yielded the half-lives t1/2(1) and t1/2(2) of the prodrugs via one determination.

In series [2] the test system is HIV-2(ROD). As to the kind of experiment: Anti-HIV activity assay, HIV-2 in TK-deficient CEM/TK− cells. The series is classed as cell-based. Particulars: thymidine kinase-deficient CEM/TK− cells, mean±s.d., n=2–3. On the procedure:
(§1) Inhibition of HIV-1(IIIB)- and HIV-2(ROD)-induced cytopathicity in wild-type CEM/0 and TK-deficient CEM/TK^− cell cultures was measured in microtitre 96-well plates containing ∼3 × 10^5 CEM cells ml^−1 infected with 100 CCID50 of HIV per millilitre and containing appropriate dilutions of the test compounds. After 4−5 days of incubation at 37 °C in a CO2-controlled humidified atmosphere, CEM giant (syncytium) cell formation was examined microscopically. The EC50 (50% effective concentration) was defined as the compound concentration required to inhibit HIV-induced giant cell formation by 50%.

Series [3] can be described thus: Enzyme-catalysed hydrolysis in CEM cell extracts. Particulars: human CEM cell extract, 37 °C.
Description: The hydrolysis mixtures were analysed by means of analytical RP-18-HPLC.
A volume of 10 μl of the appropriate 50 mM DMSO-d6 stock solution was diluted to 6.0 mM hydrolysis solution by addition of 73.3 μl DMSO-d6. Seven different samples including 10 μl water and 10 μl hydrolysis solution were prepared. The reaction was started by addition of 50 μl human CEM cell extract and the mixture was incubated at 37 °C for different time periods of hydrolysis. The work-up depended on the particular compound: (a) for 3a–f,l,m,p and 4a,e the reactions were stopped by addition of 150 μl MeOH. The solution was kept on ice for 5 min followed by centrifugation for 5 min (13,000 r.p.m.). The supernatants were filtered (Chromafil RC-20/15 MS, 0.2 μm) and stored in liquid nitrogen. (b) For 3g–i,k,n and 4j, the samples were directly frozen in liquid nitrogen. The solution was defrosted followed by ultrasonication for 10 min. After centrifugation for 5 min the supernatants were filtered (Chromafil AO-20/3, 0.2 μm) and stored at −196 °C. (c) For 3j the mixture was diluted with 70 μl THF (HPLC grade) and frozen in liquid nitrogen followed by defrosting, ultrasonication, centrifugation, filtration and stored as described for (b). Samples were defrosted and 50–80 μl were subjected to HPLC analysis.
Human CD4^+ T-lymphocyte CEM cells were grown in RPMI-1640-based cell culture medium to a final density of ∼3·10^6 cells ml^−1. Then, cells were centrifuged for 10 min at 1,250 r.p.m. at 4 °C, washed twice with cold PBS and the pellet was resuspended at 10^8 cells ml^−1 and sonicated (Hielscher Ultrasound Techn., 100% amplitude, three·times for 10 s) to destroy cell integrity. The resulting cell suspension was then centrifuged at 10,000 r.p.m. to remove cell debris, and the supernatant divided into aliquots before being frozen at −80 °C and used.
Series [4] deals with HIV-2(ROD). In words: Anti-HIV activity assay, HIV-2 in wild-type CEM/0 cells. The series is classed as cell-based. Particulars: read-out: EC50 CEM HIV-2. On the procedure:
as §1

In the next series the test system is pig liver esterase (PLE). As to the kind of experiment: Enzymatic hydrolysis with pig liver esterase (PLE) in PBS. The series is classed as in vitro ADME. Particulars: PLE in PBS pH 7.3, 37 °C; for t1/2(1) PLE: removal of first masking unit (half-lives of 3); for t1/2(2) PLE: second hydrolysis step, half-lives of intermediate 4. On the procedure:
Furthermore, 140 μl of the 6.0 mM solution was diluted with 105 μl DMSO-d6 and 700 μl 50 mM PBS buffer. The reaction was started by addition of 52.5 μl of PLE in PBS buffer (3 mg ml^−1) and the mixture was incubated at 37 °C in a thermomixer. At different times, aliquots (125 μl) were taken and treated as follows: (a) for 3a–g,l,m and 4a,e the reaction was stopped by addition to 132.5 μl MeOH. […] (b) For 3h,i,k,n and 4j, the sample was directly frozen in liquid nitrogen.

For the next series, the target named is T1, HIV RT (Human immunodeficiency virus type 1 group M subtype B, UniProt P03366).
T1 construct: Primer extension assays with HIV reverse transcriptase; purchased Roboklon
In words: Primer extension assay with HIV reverse transcriptase using PLE hydrolysate. The series is classed as biochemical. Particulars: hydrolysate after complete consumption of prodrug and intermediate; 2.5 μM, 37 °C, 10 min. On the procedure:
To confirm the prodrug concept and thus the direct successful release of the biologically active triphosphate metabolite, the prodrug 3e was exposed to PLE and the hydrolysis monitored with RP-18-HPLC. After complete consumption of 3e as well as its intermediate 4e the solvents were removed. For the template/primer extension assay (Fig. 4a), HIV RT was incubated with the PLE hydrolysate as such (T*) or with the PLE hydrolysate in the additional presence of dCTP (T*, C), or dCTP+dGTP (T*, C, G) or all natural 2′-deoxynucleotides (N*). […] In addition, TriPPPro-TTP 3r was synthesized (Fig. 5) and also investigated in the same way. […] The primer could be fully extended till 30 nt when T* was added in the presence of dCTP and dGTP, as also the N* and N samples could.
The used polymerase HIV RT was obtained from Roboklon. The primer and template were purchased from Life Technologies.
The primer extension assays were performed under the following conditions:
The primer was labelled using [γ^32P]-ATP according to standard techniques. After 5-min incubation at 95 °C in 20 mM Tris-HCl (pH 7.6) and 50 mM NaCl, the hybridization/annealing of the primer to the template strand was achieved by a cooling phase from 95 to 20 °C over 3 h. […]

The subject of another series is CD4+ T-cell (CEM). In words: Cytotoxicity: inhibition of CEM cell proliferation. The class given is cell-based, human. Particulars: 50% cytostatic concentration, mean±s.d., n=2–3.
In a further series the test system is HIV-1(IIIB). As to the kind of experiment: Anti-HIV activity assay, HIV-1 in wild-type CEM/0 cells. The series is classed as cell-based. Particulars: HIV-induced giant cell formation, mean±s.d., n=2–3. On the procedure:
as §1

A short description of series [5]: Cytotoxicity: inhibition of CEM cell proliferation. The class given is cell-based, human. Particulars: human, CEM cells (CD4+ T-cells), 50% cytostatic concentration, mean±s.d., n=2–3.
[6] abbreviates: wild-type CEM cells, HIV-induced giant cell formation, mean±s.d., n=2–3.

In general, EC50 refers to the concentration that produces a half-maximal response. For orientation: CC50 means the concentration that lowers cell viability or growth by half. Lower therefore signals greater toxicity to the cells. Consider `CCCCCCCCC(=O)Oc1ccc(COP(=O)(OCc2ccc(OC(=O)CCCCCCCC)cc2)OP(=O)(O)OP(=O)(O)OC[C@@H]2C=C[C@H](n3cc(C)c(=O)[nH]c3=O)O2)cc1` [3e, γ-Bis-(4-nonanoyloxybenzyl)-d4TTP], for which the “t1/2(1) PBS, pH=7.3” value in [1] was determined as 52 h. Besides, the “t1/2(2) PBS, pH=7.3” value in series [1] is 390 h. For the same compound, the values for the EC50 in the series with HIV-2(ROD) [2], in the series with HIV-2(ROD) [4] (setting [6]) and in the series with HIV-1(IIIB) were 2260 ± 1030 nM, 620 ± 300 nM and 310 ± 10 nM, respectively. In addition, in [3], the “t1/2(1) CEM” value came to 2.5 h. Besides, in the series with pig liver esterase (PLE), the “t1/2(1) PLE” value was 0.013 h. Further, the “t1/2(2) PLE” value in the series on pig liver esterase (PLE) is listed as 1.6 h. Further, the “primer extension by HIV RT with PLE hydrolysate of the prodrug” value at HIV RT is “immediate DNA chain termination”. In the series with CD4+ T-cell (CEM), the CC50 was found to be 52000 ± 1000 nM.
In the case of `CCCCCCCCCCCCCCCCCC(=O)Oc1ccc(COP(=O)(OCc2ccc(OC(=O)CCCCCCCCCCCCCCCCC)cc2)OP(=O)(O)OP(=O)(O)OC[C@@H]2C=C[C@H](n3cc(C)c(=O)[nH]c3=O)O2)cc1` [3j, γ-Bis-(4-octadecanoyloxybenzyl)-d4TTP], in series [1], the “t1/2(1) PBS, pH=7.3” value was 50 h. In series [1], the “t1/2(2) PBS, pH=7.3” value is listed as 583 h. For the same compound, the figures for the EC50 with HIV-2(ROD) [2], with HIV-2(ROD) [4] (setting [6]) and in the series on HIV-1(IIIB) were 280 ± 40 nM, 310 nM and 170 nM, respectively. Moreover, in series [3], the “t1/2(1) CEM” value worked out at 13 h. Also, the “t1/2(1) PLE” value in the series with pig liver esterase (PLE) was 37 h. In the series with CD4+ T-cell (CEM), the CC50 is 29000 ± 9000 nM.
As to `CCCCCCCC/C=C\CCCCCCCC(=O)Oc1ccc(COP(=O)(OCc2ccc(OC(=O)CCCCCCC/C=C\CCCCCCCC)cc2)OP(=O)(O)OP(=O)(O)OC[C@@H]2C=C[C@H](n3cc(C)c(=O)[nH]c3=O)O2)cc1` [3k, γ-Bis(4-(Z)-octadec-9-enoyloxybenzyl)-d4TTP], the “t1/2(1) PBS, pH=7.3” value in series [1] was found to be 27 h. The “t1/2(2) PBS, pH=7.3” value in [1] turned out to be 92 h. Further, the EC50 in the series on HIV-2(ROD) [2] was determined as 930 ± 470 nM; in the series on HIV-2(ROD) [4] (setting [6]), 470 ± 100 nM; with HIV-1(IIIB), 300 ± 10 nM. The “t1/2(1) CEM” value in series [3] is reported as 4.3 h. The “t1/2(1) PLE” value in the series with pig liver esterase (PLE) is recorded as 42 h. The CC50 in the series on CD4+ T-cell (CEM) was determined as 25000 ± 1000 nM.
`COC(=O)Oc1ccc(COP(=O)(OCc2ccc(OC(=O)OC)cc2)OP(=O)(O)OP(=O)(O)OC[C@@H]2C=C[C@H](n3cc(C)c(=O)[nH]c3=O)O2)cc1` [3l, γ-Bis-(4-methyloxycarbonyloxybenzyl)-d4TTP]: in series [1], the “t1/2(1) PBS, pH=7.3” value was 24 h and the “t1/2(2) PBS, pH=7.3” value stood at 200 h. Further, the EC50 in the series on HIV-2(ROD) [2] is above 10000 nM. The “t1/2(1) CEM” value in series [3] was 0.97 h. In the series with HIV-2(ROD) [4] (setting [6]), the EC50 is 920 ± 120 nM. For the same compound, in the series with pig liver esterase (PLE), the “t1/2(1) PLE” value is listed as 3.8 h and the “t1/2(2) PLE” value is reported as 177 h. In the series on CD4+ T-cell (CEM), this compound had a CC50 of 16000 ± 1000 nM. Moreover, the EC50 with HIV-1(IIIB) is 400 nM.
With `CCCCCCCCOC(=O)Oc1ccc(COP(=O)(OCc2ccc(OC(=O)OCCCCCCCC)cc2)OP(=O)(O)OP(=O)(O)OC[C@@H]2C=C[C@H](n3cc(C)c(=O)[nH]c3=O)O2)cc1` [3m, γ-Bis-(4-octyloxycarbonyloxybenzyl)-d4TTP], the “t1/2(1) PBS, pH=7.3” value in series [1] is 82 h. Moreover, the “t1/2(2) PBS, pH=7.3” value in [1] amounted to 590 h. Also, the EC50 in the series with HIV-2(ROD) [2] is 1260 nM; in the series with HIV-2(ROD) [4] (setting [6]), 470 ± 100 nM; in the series with HIV-1(IIIB), 360 ± 60 nM. Moreover, in [3], the “t1/2(1) CEM” value turned out to be 2.6 h. The “t1/2(1) PLE” value with pig liver esterase (PLE) is reported as 0.12 h. The “t1/2(2) PLE” value in the series on pig liver esterase (PLE) turned out to be 17 h. The same compound had a CC50 with CD4+ T-cell (CEM) of 51000 ± 5000 nM.
`CCCCCCCCCCCCOC(=O)Oc1ccc(COP(=O)(OCc2ccc(OC(=O)OCCCCCCCCCCCC)cc2)OP(=O)(O)OP(=O)(O)OC[C@@H]2C=C[C@H](n3cc(C)c(=O)[nH]c3=O)O2)cc1` [3n, γ-Bis-(4-dodecyloxycarbonyloxybenzyl)-d4TTP]: in series [1], the “t1/2(1) PBS, pH=7.3” value is on record as 99 h. Moreover, in series [1], the “t1/2(2) PBS, pH=7.3” value came out at 631 h. The EC50 in the series with HIV-2(ROD) [2] was 1260 nM; in the series with HIV-2(ROD) [4] (setting [6]), 690 ± 210 nM; in the series on HIV-1(IIIB) it was 500 ± 140 nM. For the same compound, the “t1/2(1) CEM” value in series [3] is listed as 3.0 h. Further, the “t1/2(1) PLE” value in the series on pig liver esterase (PLE) is on record as 44 h. In the series with CD4+ T-cell (CEM), this compound gave a CC50 of 41000 ± 12000 nM.
`Cc1cn([C@H]2C=C[C@@H](CO)O2)c(=O)[nH]c1=O` [d4T, 3′-deoxy-2′,3′-didehydrothymidine, reference compound]: in [1] (long chemical hydrolysis time periods), the “time in which amount of thymine doubles (cleavage of the glycosidic bond)” value was determined as 63 h. Moreover, the EC50 with HIV-2(ROD) [2] (Human immunodeficiency virus 2) amounted to 150000 ± 9000 nM; in the series on HIV-2(ROD) [4] (Human immunodeficiency virus 2, CCRF-CEM), 890 nM; in the series on HIV-1(IIIB) (Human immunodeficiency virus 1, IIIB, CCRF-CEM) it was 330 ± 110 nM. Moreover, in series [5], the CC50 was found to be 79000 ± 3000 nM.
